# From patent US9247759B2, “Identification of human T2R receptors that respond to bitter compounds that elicit the bitter taste in compositions, and the use thereof in assays to identify compounds that inhibit (block) bitter taste in compositions and use thereof” (SENOMYX, INC., priority 2007, dated 2016)
# Target: hT2R14 (Homo sapiens (Human), UniProt Q9NYV8)
# Assay: hT2R14 antagonist high-throughput FLIPR assay, stable cell line with G16g44, agonist aristolochic acid
# Assay type: cell-based
# Settings: Table B; read-out: hT2R14 IC50
# Experimental: The inventors also used the automated fluorimetric […] system FLIPR using a slightly different protocol. A HEK293 cell line stably expressing G16gust44 was transfected with a hT2R expression plasmid, 24 hours later, the cells are loaded and analyzed on FLIPR.
# After a ligand is identified for a particular hT2R, a HEK293 cell line stably expressing both the hT2R and G16gust44 are generated, facilitating future screening assays to identify other ligands that activate the particular hT2R or which modulate (block or enhance) the activation of this hT2R by another bitter ligand such as a bitter compound contained in coffee. This avoids the need for transient transfection.
# To identify antagonists, cell lines stably expressing hT2R8 and hT2R14, respectively, together with the promiscuous chimeric G16g44 protein were generated as described in previous patent applications. A high-throughput assay was established using the stable cell lines and FLIPR (Fluorescent Imaging Plate Reader). An agonist of hT2R8 or hT2R14 was used to activate the receptors up to 70-80% of their respective maximal activity. For hT2R8, the agonist used was andrographolide (200 […]); for hT2R14, it was aristolochic acid (3 μM). To identify antagonists, compounds with diverse chemical structures were added together with the agonist.
# hT2R14, sequence (Q9NYV8 whole entry): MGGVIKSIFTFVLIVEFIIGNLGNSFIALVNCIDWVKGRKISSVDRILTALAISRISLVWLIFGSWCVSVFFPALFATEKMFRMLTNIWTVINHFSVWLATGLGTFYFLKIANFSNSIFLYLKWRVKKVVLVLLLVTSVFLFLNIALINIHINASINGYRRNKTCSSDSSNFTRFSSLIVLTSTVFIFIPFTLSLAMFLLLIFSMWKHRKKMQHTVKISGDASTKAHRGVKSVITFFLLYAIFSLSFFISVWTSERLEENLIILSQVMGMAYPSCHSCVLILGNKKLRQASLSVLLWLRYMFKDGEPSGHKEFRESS
row,SMILES,IC50 [nM]
1,"CC(C)CN(CC(C)C)S(=O)(=O)c1ccc(C(=O)O)cc1 [Compound 5-9, 4-(N,N-diisobutylsulfamoyl)benzoic acid]",15000

# Same assay, conditions: Table C; read-out: hT2R14 IC50
row,SMILES,IC50 [nM]
1,"O=C(O)c1ccc(S(=O)(=O)N(Cc2ccccc2)Cc2ccc(F)cc2)cc1 [Example 5-131, 4-(N-benzyl-N-(4-fluorobenzyl)sulfamoyl)benzoic acid]",8280
2,"Cc1cccc(CN(Cc2ccccc2)S(=O)(=O)c2ccc(C(=O)O)cc2)c1 [Example 5-135, 4-(N-benzyl-N-(3-methylbenzyl)sulfamoyl)benzoic acid]",2290
3,"CCc1ccc(CN(Cc2ccccc2)S(=O)(=O)c2ccc(C(=O)O)cc2)cc1 [Example 5-143, 4-(N-benzyl-N-(4-ethylbenzyl)sulfamoyl)benzoic acid]",8580
4,"Cc1ccc(CN(CC2CCC(C(=O)O)CC2)S(=O)(=O)c2ccc(C)cc2)cc1 (stereo not drawn) [Example 5-126, 4-((4-methyl-N-(4-methylbenzyl)phenylsulfonamido)methyl) cyclohexanecarboxylic acid]",109
5,"CCOC(=O)C1CCC(CN(Cc2ccccc2)S(=O)(=O)c2ccc(Br)cc2)CC1 (stereo not drawn) [Example 5-118, ethyl 4-((N-benzyl-4-bromophenylsulfonamido)methyl) cyclohexanecarboxylate]",2340
6,"O=C(O)c1ccc(S(=O)(=O)N(Cc2ccccc2)Cc2ccccc2Cl)cc1 [Example 5-141, 4-(N-benzyl-N-(2-chlorobenzyl)sulfamoyl)benzoic acid]",4490
7,"O=C(O)C1CCC(CN(Cc2ccc(F)cc2)S(=O)(=O)c2cccnc2)CC1 (stereo not drawn) [Example 5-52, 4-((N-(4-fluorobenzyl)pyridine-3-sulfonamido)methyl)cyclohexanecarboxylic acid]",8430
8,"Cc1cc(NC(=S)N(Cc2ccccc2C)CC2CCC(C(=O)O)CC2)ccc1Cl (stereo not drawn) [Example 5-114, 4-((3-(4-chloro-3-methylphenyl)-1-(2-methylbenzyl)thioureido)methyl) cyclohexanecarboxylic acid]",4870
9,"O=C(O)c1ccc(S(=O)(=O)N(Cc2ccccc2)Cc2ccccc2F)cc1 [Example 5-134, 4-(N-benzyl-N-(2-fluorobenzyl)sulfamoyl)benzoic acid]",6160
10,"Cc1ccc(S(=O)(=O)N(Cc2ccc(C#N)cc2)CC2CCC(C(=O)O)CC2)cc1 (stereo not drawn) [Example 5-127, 4-((N-(4-cyanobenzyl)-4-methylphenylsulfonamido)methyl) cyclohexanecarboxylic acid]",499
11,"O=C(O)c1ccc(S(=O)(=O)N(Cc2ccccc2)Cc2ccc(Cl)cc2)cc1 [Example 5-137, 4-(N-benzyl-N-(4-chlorobenzyl)sulfamoyl)benzoic acid]",3980
12,"COc1ccc(CN(C2CCCc3ccccc32)S(=O)(=O)c2ccc(C(=O)O)cc2)cc1 (stereo not drawn) [Example 5-150, 4-(N-(4-methoxybenzyl)-N-(1,2,3,4-tetrahydronaphthalen-1-yl)sulfamoyl)benzoic acid]",2420
13,"N#Cc1ccccc1CN(Cc1ccccc1)S(=O)(=O)c1ccc(C(=O)O)cc1 [Example 5-147, 4-(N-benzyl-N-(2-cyanobenzyl)sulfamoyl)benzoic acid]",4630
14,"O=C(O)c1ccc(CN(Cc2ccccc2)S(=O)(=O)c2ccc(Cl)cc2)cc1 [Example 5-120, 4-((N-benzyl-4-chlorophenylsulfonamido)methyl)benzoic acid]",394
15,"Cc1ccccc1CN(Cc1ccccc1)S(=O)(=O)c1ccc(C(=O)O)cc1 [Example 5-140, 4-(N-benzyl-N-(2-methylbenzyl)sulfamoyl)benzoic acid]",2930
16,"Nc1ccc(S(=O)(=O)N(Cc2ccc(F)cc2)CC2CCC(C(=O)O)CC2)cc1 (stereo not drawn) [Example 5-125, 4-((4-amino-N-(4-fluorobenzyl)phenylsulfonamido)methyl) cyclohexanecarboxylic acid]",1650
17,"COc1ccc(CN(C(C)c2ccccc2)S(=O)(=O)c2ccc(C(=O)O)cc2)cc1 (stereo not drawn) [Example 5-149, 4-(N-(4-methoxybenzyl)-N-(1-phenylethyl)sulfamoyl)benzoic acid]",1400
18,"COc1ccc(CN(Cc2ccccc2)S(=O)(=O)c2cccc(OC)c2)cc1 [Example 5-122, N-benzyl-3-methoxy-N-(4-methoxybenzyl)benzenesulfonamide]",2220
19,"CCOC(=O)C1CCC(CN(Cc2ccccc2)S(=O)(=O)c2ccc(Cl)cc2)CC1 (stereo not drawn) [Example 5-119, ethyl 4-((N-benzyl-4-chlorophenylsulfonamido)methyl) cyclohexanecarboxylate]",672
20,"N#Cc1ccc(CN(Cc2ccccc2)S(=O)(=O)c2ccc(C(=O)O)cc2)cc1 [Example 5-146, 4-(N-benzyl-N-(4-cyanobenzyl)sulfamoyl)benzoic acid]",1850
21,"COc1ccc(C2Cc3ccccc3CN2S(=O)(=O)c2ccc(C(=O)O)cc2)cc1 (stereo not drawn) [Example 5-161, 4-(3-(4-methoxyphenyl)-3,4-dihydroisoquinolin-2(1H)-ylsulfonyl)benzoic acid]",6270
22,"CCOC(=O)C1CCC(CN(Cc2ccccc2)S(=O)(=O)c2ccc(NC(C)=O)cc2)CC1 (stereo not drawn) [Example 5-115, ethyl 4-((4-acetamido-N-benzylphenylsulfonamido)methyl) cyclohexanecarboxylate]",334
23,"COc1cccc(CN(Cc2ccccc2)S(=O)(=O)c2ccc(C(=O)O)cc2)c1 [Example 5-136, 4-(N-benzyl-N-(3-methoxybenzyl)sulfamoyl)benzoic acid]",5990
24,"COc1ccc(CN(Cc2ccccc2)S(=O)(=O)c2ccc(C(=O)O)cc2)cn1 [Example 5-145, 4-(N-benzyl-N-((6-methoxypyridin-3-yl)methyl)sulfamoyl)benzoic acid]",3260
25,"COc1ccc(CN(Cc2ccccc2Cl)S(=O)(=O)c2ccc(C(=O)O)cc2)cc1 [Example 5-130, 4-(N-(2-chlorobenzyl)-N-(4-methoxybenzyl)sulfamoyl)benzoic acid]",7040
26,"COc1ccc(CN(Cc2ccccc2)S(=O)(=O)c2ccc(C(=O)O)cc2)cc1C [Example 5-144, 4-(N-benzyl-N-(4-methoxy-3-methylbenzyl)sulfamoyl)benzoic acid]",2000
27,"COc1ccc(CN(CC2CCC(C(=O)O)CC2)C(=S)Nc2ccc(C)c(Cl)c2)cc1 (stereo not drawn) [Example 5-111, 4-((3-(3-chloro-4-methylphenyl)-1-(4-methoxybenzyl)thioureido)methyl) cyclohexanecarboxylic acid]",6140

# Same assay, conditions: Table D; read-out: hT2R14 IC50
row,SMILES,IC50 [nM]
1,"CNS(=O)(=O)c1ccc2[nH]c(=O)c(=O)[nH]c2c1 [Example 6-30, N-methyl-2,3-dioxo-1,2,3,4-tetrahydroquinoxaline-6-sulfonamide]",6230
2,"Cc1nc2ccc(NS(=O)(=O)c3ccc4c(c3)n(C)c(=O)c(=O)n4C)cc2nc1C [Example 6-19, N-(2,3-dimethylquinoxalin-6-yl)-1,4-dimethyl-2,3-dioxo-1,2,3,4-tetrahydroquinoxaline-6-sulfonamide]",6330
3,"CCc1nc(SCC(=O)N2CCC(C)CC2)c2c(=O)n(C)c(=O)n(C)c2n1 [Example 6-26, 7-ethyl-1,3-dimethyl-5-(2-(4-methylpiperidin-1-yl)-2-oxoethylthio)pyrimido[4,5-d]pyrimidine-2,4(1H,3H)-dione]",721
4,"Cc1cc(C)c(C#N)c(NS(=O)(=O)c2ccc3c(c2)c(=O)n(C)c(=O)n3C)c1 [Example 6-17, N-(2-cyano-3,5-dimethylphenyl)-1,3-dimethyl-2,4-dioxo-1,2,3,4-tetrahydroquinazoline-6-sulfonamide]",1950
5,"Cn1c(=O)c2cc(S(=O)(=O)Nc3ccc(Cl)cc3F)ccc2n(C)c1=O [Example 6-23, N-(4-chloro-2-fluorophenyl)-1,3-dimethyl-2,4-dioxo-1,2,3,4-tetrahydroquinazoline-6-sulfonamide]",9700
6,"CCOC(=O)N1CCN(C(=O)CSc2nc(CC)nc3c2c(=O)n(C)c(=O)n3C)CC1 [Example 6-27, ethyl 4-(2-(2-ethyl-6,8-dimethyl-5,7-dioxo-5,6,7,8-tetrahydropyrimido[4,5-d]pyrimidin-4-ylthio)acetyl)piperazine-1-carboxylate]",763
7,"Cn1c(=O)c2c(SCC(=O)NCc3ccccc3)ccnc2n(C)c1=O [Example 6-29, N-benzyl-2-(1,3-dimethyl-2,4-dioxo-1,2,3,4-tetrahydropyrido[2,3-d]pyrimidin-5-ylthio)acetamide]",710
8,"Cn1c(=O)c2c(SCC(=O)N3CCCCCC3)ccnc2n(C)c1=O [Example 6-28, 5-(2-(azepan-1-yl)-2-oxoethylthio)-1,3-dimethylpyrido[2,3-d]pyrimidine-2,4(1H,3H)-dione]",2380
9,"CC(=O)CSc1nc(C2CCCC2)nc2c1c(=O)n(C)c(=O)n2C [Example 6-15, 7-cyclopentyl-1,3-dimethyl-5-(2-oxopropylthio)pyrimido[4,5-d]pyrimidine-2,4(1H,3H)-dione]",5430
10,"Cc1nc(SCC(=O)N2CCCCC2)c2c(=O)n(C)c(=O)n(C)c2n1 [Example 6-24, 1,3,7-trimethyl-5-(2-oxo-2-(piperidin-1-yl)ethylthio)pyrimido[4,5-d]pyrimidine-2,4(1H,3H)-dione]",292

# Same assay, conditions: read-out: IC50 on hT2R14 bitter receptor
row,SMILES,IC50 [nM]
1,"O=C(O)c1ccc(CN(Cc2cccc(F)c2)S(=O)(=O)c2ccc(O)cc2)cc1 [Example 5-45, 4-((N-(3-fluorobenzyl)-4-hydroxyphenylsulfonamido)methyl)benzoic acid]",459
